In ChEMBL document CHEMBL4610025, “Discovery of a follistatin-derived myostatin inhibitory peptide” (Bioorg Med Chem Lett, 2020):
The source made the active and inactive calls. No cut-off for these calls is given here. Non-standard residues stand in square brackets, D forms with d. Residues, ends and D or L forms follow the SMILES beside them. Chg = N[C@H](C(=O)O)C1CCCCC1

What was measured:
[1] = biological target: Growth/differentiation factor 8 (Homo sapiens) (UniProt O14793); assay: Inhibition of myostatin (unknown origin) expressed in HEK293 cells at 10 uM incubated for 4 hrs by dual luciferase reporter gene assay; format: cell-based
HEK293 = assay: Inhibition of activin A (unknown origin) expressed in HEK293 cells at 0.3 to 10 uM incubated for 4 hrs by dual luciferase reporter gene assay; format: cell-based; details: Homo sapiens
[2] = biological target: Transforming growth factor beta-1 proprotein (Homo sapiens) (UniProt P01137); assay: Inhibition of TGFbeta1 (unknown origin) expressed in HEK293 cells at 0.3 to 10 uM incubated for 4 hrs by dual luciferase reporter gene assay; format: cell-based
Transforming growth factor beta-1 proprotein (Homo sapiens), sequence (P01137 279-390 limits assumed): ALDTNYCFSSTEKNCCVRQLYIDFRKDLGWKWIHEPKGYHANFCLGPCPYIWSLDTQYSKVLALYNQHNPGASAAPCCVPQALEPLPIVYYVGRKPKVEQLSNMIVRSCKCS

[3] = biological target: Growth/differentiation factor 8 (Homo sapiens) (UniProt O14793); assay: (§1) Inhibition of myostatin (unknown origin) expressed in HEK293 cells incubated for 4 hrs by dual luciferase reporter gene assay; format: cell-based
[4] = biological target: T1, Growth/differentiation factor 8 (Homo sapiens, UniProt O14793); assay: as §1; format: cell-based
T1 sequence (O14793 whole entry): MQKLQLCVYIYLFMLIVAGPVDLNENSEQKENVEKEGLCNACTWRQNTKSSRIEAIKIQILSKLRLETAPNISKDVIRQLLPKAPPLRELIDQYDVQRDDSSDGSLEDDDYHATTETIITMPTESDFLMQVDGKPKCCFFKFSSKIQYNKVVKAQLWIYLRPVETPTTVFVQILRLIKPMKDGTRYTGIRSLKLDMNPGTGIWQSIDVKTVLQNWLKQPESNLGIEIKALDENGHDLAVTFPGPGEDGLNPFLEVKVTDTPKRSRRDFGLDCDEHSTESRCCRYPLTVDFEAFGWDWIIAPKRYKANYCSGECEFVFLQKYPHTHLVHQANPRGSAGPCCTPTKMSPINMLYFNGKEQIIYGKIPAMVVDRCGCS

Mus musculus = assay: Effect on muscle growth in C57BL/6J mouse assessed as increase in tibialis anterior muscle weight at 20 nmol administered intramuscularly measured at day 28 relative to control; format: functional

inhibition [1]	inhibition [2]	inhibition [3]	IC50 [4]	Structure (SMILES)	inhibition (HEK293)	Activity (Mus musculus)
Active	inactive	Dose-dependent effect	6.2 µM	CC[C@H](C)[C@H](NC(=O)[C@H](CCSC)NC(=O)[C@H](Cc1c[nH]c2ccccc12)NC(=O)[C@H](CCCCN)NC(=O)[C@H](Cc1ccccc1)NC(=O)[C@H](CC(C)C)NC(=O)[C@@H](NC(=O)[C@H](CC(N)=O)NC(=O)[C@H](CC(=O)O)NC(=O)[C@H](CC(N)=O)NC(=O)[C@@H](N)C(C)C)[C@@H](C)O)C(=O)N[C@@H](Cc1ccccc1)C(=O)N[C@@H](CC(N)=O)C(=O)NCC(N)=O (H-VNDNTLFKWMIFNG-NH2)	inactive	112%
			3.56 µM	CC[C@H](C)[C@H](NC(=O)[C@H](CCC(N)=O)NC(=O)[C@@H](NC(=O)[C@H](CCCCN)NC(=O)[C@@H](NC(=O)[C@@H](Cc1c[nH]c2ccccc12)NC(=O)[C@H](CCCNC(=N)N)NC(=O)[C@@H](NC(=O)[C@H](Cc1ccc(O)cc1)NC(=O)[C@@H](N)Cc1c[nH]c2ccccc12)[C@@H](C)CC)[C@@H](C)CC)C1CCCCC1)C(=O)N[C@@H](Cc1c[nH]c2ccccc12)C(=O)N[C@@H](CO)C(=O)N[C@@H](CCCCN)C(=O)N[C@H](C(=O)N[C@@H](CCCNC(=N)N)C(=O)N[C@@H](CC(C)C)C(N)=O)C1CCCCC1 (H-WYIR[dW]IK[Chg]QIWSK[Chg]RL-NH2)		
